Here are results for 32 compounds from patent US20260256747A1, “ARYL-TRIAZOLYL AND RELATED GPR84 ANTAGONISTS AND USES THEREOF” (Liminal BioSciences Limited, priority 2022, published 2026).

Assay [1] deals with mouse dextran sodium sulfate-induced chronic inflammatory bowel disease model. The note with it: once-daily doses of 3 and 10 mg/kg; efficacy similar to sulfasalazine; cited from earlier work.
A further assay addresses T1, human GPR84 receptor (Homo sapiens, UniProt Q9NQS5).
T1 construct: host or cells: HEK293 cells, transient transfection
Put plainly: Gαi biosensor BRET assay in HEK293 cells transfected with GPR84, stimulated with the GPR84 agonist ZQ-16. In kind it is cell-based. The note with it: 200 nmol/L ZQ-16; for inhibition at 10 µM / inhibition at 2 µM: HEK293, single concentration; for inhibition at 10 µM: concentration class F = 10 μM; for inhibition at 2 µM: concentration class A = 2 μM. On the technique in general: BRET reads energy transfer from a luciferase to a nearby fluorophore.

T1 sequence (Q9NQS5 whole entry): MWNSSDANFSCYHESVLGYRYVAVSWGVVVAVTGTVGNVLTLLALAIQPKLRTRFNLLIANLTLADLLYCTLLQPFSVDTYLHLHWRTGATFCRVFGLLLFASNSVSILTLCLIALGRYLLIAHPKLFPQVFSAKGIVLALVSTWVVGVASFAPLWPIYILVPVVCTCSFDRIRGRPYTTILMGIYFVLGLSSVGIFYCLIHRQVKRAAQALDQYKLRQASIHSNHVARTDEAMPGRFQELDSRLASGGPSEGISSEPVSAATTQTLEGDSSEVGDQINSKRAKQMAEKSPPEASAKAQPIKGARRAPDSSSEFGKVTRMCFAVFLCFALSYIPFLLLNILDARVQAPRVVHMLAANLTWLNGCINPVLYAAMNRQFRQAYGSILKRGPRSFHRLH

Consider `O=c1nc(OC[C@@H]2COCCO2)cc2n1CCc1cc(C#CC3CC3)ccc1-2` [GLPG1205], for which, in assay [1], the “disease activity index score” value is “reduced” and the neutrophil infiltration result was “reduced”.
The term inhibition denotes how much of the control response was suppressed. Take `CN(C)c1cc(N2CC3(CC(O)C3)C2)ccc1-c1cn(CC2OCC3(CC3)CO2)nn1` (centres unmarked) [Compound I-7, 2-(4-(1-(5,7-dioxaspiro[2.5]octan-6-ylmethyl)-1H-1,2,3-triazol-4-yl)-3-(dimethylamino)phenyl)-2-azaspir[3.3]heptan-6-ol]: the inhibition at 10 µM on human GPR84 receptor was above 75%.
A word on the IC50: it is the point on the concentration scale where inhibition reaches its midpoint. Lower therefore signals higher potency. On human GPR84 receptor, `CCc1cc(N2CCN(Cc3ccccn3)CC2)ccc1-c1cn(CC2OCC3(CC3)CO2)cn1` [Compound I-56] registered a concentration for half-maximal inhibition (IC50) of at most 300 nM and an inhibition at 10 µM above 75%.
As to `Cn1cncc1-c1cnc(-c2cn(CC3OCC4(CC4)CO3)nn2)c(OC2CC2)c1` [Compound I-230], the inhibition at 10 µM at human GPR84 receptor is 50 to 75%.
Turning to `Cc1cc(C#CC2CC2)ccc1-c1cn(Cc2cncs2)nn1` [Compound I-12], at human GPR84 receptor, the inhibition at 2 µM was at most 25%.
In the case of `CN(C(=O)c1cnc(-c2cn(CC3OCC4(CC4)CO3)nn2)c(OC2CC2)c1)C1CC1` [Compound I-59, 6-(1-((5,7-dioxaspiro[2.5]octan-6-yl)methyl)-1H-1,2,3-triazol-4-yl)-5-cyclopropoxy-N-cyclopropyl-N-methylnicotinamide], at human GPR84 receptor, the inhibition at 10 µM was at most 25%.
Compound `c1ccc(CN2CCN(c3cnc(-c4cn(CC5OCC6(CC6)CO5)cn4)c(OC4CC4)c3)CC2)nc1` [Compound I-211] registered an inhibition at 10 µM at human GPR84 receptor of 25 to 50%.
On the same count and under the same terms, the same measure for `CN(C)C(=O)Cn1cc(-c2ncc(C#N)cc2OC2CC2)nn1` [Compound I-240]: at most 25%; for `CC(O)C1CN(c2ccc(-c3cn(CC4OCC5(CC5)CO4)nn3)c(N(C)C)c2)C1` (centres unmarked) [Compound I-5, 1-(1-(4-(1-(5,7-dioxaspiro[2.5]octan-6-ylmethyl)-1H-1,2,3-triazol-4-yl)-3-(dimethylamino)phenyl)azetidin-3-yl)ethanol]: above 75%.
Same read-out and setting: in the case of `CN(C)c1cc(N2CCN(Cc3ccccn3)CC2)ccc1-c1cn(CC2OCC(C)(C)CO2)cn1` [Compound I-137] it was at most 25%.
With `Cc1ccc(C#CC2CC2)cc1C(F)(F)c1cn(CC(=O)N(C)C)nn1` [Compound I-263], the inhibition at 2 µM on human GPR84 receptor fell in the range of 25 to 50%.
`CC1(C)COC(Cn2cc(-c3ncc(C#CCNC4CC(F)(F)C4)cc3OC3CC3)nn2)OC1` [Compound I-38]: at human GPR84 receptor, the IC50 was at most 300 nM and the inhibition at 2 µM was above 75%.
In the case of `CC1(C)COC(Cn2cc(-c3ncc(C#CC4(O)CC4)cc3OC3CC3)nn2)OC1` [Compound I-34], on human GPR84 receptor, the IC50 was at most 300 nM and the inhibition at 2 µM is above 75%.
Consider `CN(C)C(=O)COc1cnc(-c2cn(CC3OCC4(CC4)CO3)nn2)c(OC2CC2)c1` [Compound I-72], for which, on human GPR84 receptor, the inhibition at 10 µM lay in the range of 25 to 50%.
Regarding `CNC(=O)c1cnc(-c2cn(CC3OCC4(CC4)CO3)nn2)c(OC2CC2)c1` [Compound I-66], the inhibition at 10 µM at human GPR84 receptor fell in the range of 50 to 75%.
On human GPR84 receptor, `c1nc(-c2cn(CC3OCC4(CC4)CO3)nn2)c(OC2CC2)cc1N1CC2(CC2)C1` [Compound I-17] yielded an IC50 of 300 to 1000 nM and an inhibition at 10 µM above 75%.
In turn, `COc1ccc(C#Cc2cnn(CC3OCC(C)(C)CO3)n2)cc1` [Compound I-46] returned an inhibition at 10 µM at human GPR84 receptor of at most 25%.
At human GPR84 receptor, `CN(C)C(=O)Cn1cc(-c2nnc(-c3cc(C#CC4CC4)ccc3F)o2)nn1` [Compound I-262] had an inhibition at 10 µM of at most 25%.
Same read-out and setting: the same measure for `CN(C)c1cc(N2CC3(COC3)C2)ccc1-c1cn(CC2OCC3(CC3)CO2)cn1` [Compound I-42]: above 75%; for `Cc1cc(C#CC2CC2)ccc1-c1cn(Cc2cocn2)nn1` [Compound I-13]: at most 25%.
The same measure, in the same setting: the same measure for `Cn1nncc1-c1cnc(-c2cn(CC3OCC4(CC4)CO3)nn2)c(OC2CC2)c1` [Compound I-225]: 50 to 75%.
Still for that read-out and setting: in the case of `Cn1nccc1-c1cnc(-c2cn(CC3OCC4(CC4)CO3)nn2)c(OC2CC2)c1` [Compound I-237] it was 50 to 75%.
On human GPR84 receptor, `CC1(C)COC(Cn2cc(-c3ncc(C#CCNS(C)(=O)=O)cc3OC3CC3)nn2)OC1` [Compound I-36] gave an IC50 of at most 300 nM and an inhibition at 2 µM above 75%.
On the same counts, the results for `CN(C)c1cc(N2CC(C)(CO)C2)ccc1-c1cn(CC2OCC3(CC3)CO2)cn1` [Compound I-41] are at most 300 nM and above 75%.
For `CN(C)C(=O)Cn1cc(-c2ncc(-c3nnn[nH]3)cc2OC2CC2)nn1` [Compound I-232], the inhibition at 10 µM at human GPR84 receptor was 50 to 75%.
Consider `O=C(Cn1cncc1-c1ncc(C#CC2CC2)cc1OC1CC1)N1CCCC1` [Compound I-243], for which the inhibition at 10 µM on human GPR84 receptor is at most 25%.
Same read-out and setting: in the case of `Clc1cc(N2CCN(Cc3ccccn3)CC2)cnc1-c1cncn1CC1OCC2(CC2)CO1` [Compound I-214] it was 50 to 75%.
The same measure, in the same setting: in the case of `CN(C)C(=O)c1cnc(-c2cn(CC3OCC4(CC4)CO3)nn2)c(OC2CC2)c1` [Compound I-61] it was 25 to 50%.
At human GPR84 receptor, `CC(C)(O)C#Cc1cnc(-c2cn(CC3OCC(C)(C)CO3)nn2)c(OC2CC2)c1` [Compound I-8] yielded an IC50 of 300 to 1000 nM and an inhibition at 10 µM above 75%.
`N=C(N)c1cnc(-c2cn(CC3OCC4(CC4)CO3)nn2)c(OC2CC2)c1` [Compound I-265]: on human GPR84 receptor, the inhibition at 10 µM lay in the range of 25 to 50%.
Regarding `Cn1ccc(-c2cnc(-c3cn(CC4OCC5(CC5)CO4)nn3)c(OC3CC3)c2)n1` [Compound I-238], at human GPR84 receptor, the IC50 was at most 300 nM and the inhibition at 2 µM was above 75%.
Turning to `CN1CCN(C(=O)Cn2cc(-c3ncc(C#CC4CC4)cc3OC3CC3)nn2)CC1` [Compound I-266], the inhibition at 10 µM on human GPR84 receptor was 25 to 50%.
